Drawing on US8293731B2, “HIV integrase inhibitors” (Merck Sharp + Dohme Corp., priority 2005, dated 2012), this text covers IC95 for 27 compounds.

In the assay the test system is HIV. The assay can be described thus: Assay for inhibition of HIV replication (spread assay): acute HIV infection of T-lymphoid cells. The assay is classed as cell-based. The settings on record: Human immunodeficiency virus 1, 'less than about'. As to the method:
Assays for the inhibition of acute HIV infection of T-lymphoid cells were conducted in accordance with Vacca, J. P. et al., Proc. Natl. Acad. Set USA 1994, 91: 4096. […] For example, the compounds of Examples 1 to 64 were tested in this assay and found to have IC95 values of less than about 10 micromolar.
In turn, `CN1CC(N2CCCC2)CCn2c(c3c(c(O)c2=O)C(=O)N(Cc2ccc(F)c(Cl)c2)CC3)C1=O` (stereo not drawn) [Example 26, 11-(3-Chloro-4-fluorobenzyl)-9-hydroxy-2-methyl-4-pyrrolidin-1-yl-3,4,5,6,12,13-hexahydro-2H[1,4]diazocmo[2,1-a]-2,6-naphthyridine-1,8,10(11H)-trione] gave a concentration for an effect of 95% (IC95) below 10 µM.
`NC(=O)CN1CCCCn2c(c3c(c(O)c2=O)C(=O)N(Cc2ccc(F)c(Cl)c2)CC3)C1=O` [Example 15, 2-[11-(3-Chloro-4-fluorobenzyl)-9-hydroxy-1,8,10-trioxo-1,3,4,5,6,8,10,11,12,13-deca-hydro-2H-[1,4]diazocino[2,1-a]-2,6-naphthyridin-2-yl]acetamide] yielded an IC95 below 10 µM.
`CC1(C)C(=O)N(CCCCO)c2c3c(c(O)c(=O)n21)C(=O)N(Cc1ccc(F)c(Cl)c1)CC3` [Example 56, 8-(3-Chloro-4-fluorobenzyl)-6-hydroxy-1-(4-hydroxybutyl)-3,3-dimethyl-1,8,9,10-tetrahydroimidazo[2,1-a]-2,6-naphthyridine-2,5,7(3H)-trione] came in with an IC95 below 10 µM.
For the compound `O=C1c2c(c3n(c(=O)c2O)CCCCN(CCN2CCCC2)C3=O)CCN1Cc1ccc(F)c(Cl)c1` [Example 17, 11-(3-Chloro-4-fluorobenzyl)-9-hydroxy-2-(2-pyrrolidinyl-1-ylethyl)-3,4,5,6,12,13-hexahydro-2H[1,4]diazocino[2,1-a]-2,6-naphthyridine-1,8,10(11H)-trione], the IC95 is below 10 µM.
With `O=C1OCCCCn2c1c1c(c(O)c2=O)C(=O)N(Cc2ccc(F)c(Cl)c2)CC1` [Example 61, 11-(3-Chloro-4-fluorobenzyl)-9-hydroxy-3,4,5,6,12,13-hexahydro-[1,4]oxazocino[3,4-a]-2,6-naphthyridine-1,8,10(11H)-trione] the figure was below 10 µM; with `O=C1c2c(c3n(c(=O)c2O)CCCCN(CCO)C3=O)CCN1Cc1ccc(F)c(Cl)c1` [Example 11, 11-(3-Chloro-4-fluorobenzyl)-9-hydroxy-2-(2-hydroxyethyl)-3,4,5,6,12,13-hexahydro-2H[1,4]diazocino[2,1-a]-2,6-naphthyridine-1,8,10(11H)-trione], below 10 µM.
The figure for `CN1CCC[C@@H](CO)n2c(c3c(c(O)c2=O)C(=O)N(Cc2ccc(F)c(Cl)c2)CC3)C1=O` [Example 49, (6S)-11-(3-Chloro-4-fluorobenzyl)-9-hydroxy-6-(hydroxymethyl)-2-methyl-3,4,5,6,12,13-hexahydro-2H-[1,4]diazocino[2,1-a]-2,6-naphthyridine-1,8,10(11H)-trione] is below 10 µM; for `CN1C(=O)C(C)(C)n2c1c1c(c(O)c2=O)C(=O)N(Cc2ccc(F)c(Cl)c2)CC1` [Example 9, 8-(3-Chloro-4-fluorobenzyl)-6-hydroxy-1,3,3-trimethyl-1,8,9,10-tetrahydroimidazo[2,1a]-2,6-naphthyridine-2,5,7(3H)-trione] it is below 10 µM; for `CN(C)C(=O)CN1C(=O)C(C)(C)n2c1c1c(c(O)c2=O)C(=O)N(Cc2ccc(F)c(Cl)c2)CC1` [Example 51, 2-[8-(3-Chloro-4-fluorobenzyl)-6-hydroxy-3,3-dimethyl-2,5,7-trioxo-2,3,7,8,9,10-hexahydroimidazo[2,1-a]-2,6-naphthyridin-1(5H)-yl]-N,N-dimethylacetamide] it is below 10 µM.
The compound `CC1(C)C(=O)N(CCO)c2c3c(c(O)c(=O)n21)C(=O)N(Cc1ccc(F)c(Cl)c1)CC3` [Example 54, 8-(3-Chloro-4-fluorobenzyl)-6-hydroxy-1-(2-hydroxyethyl)-3,3-dimethyl-1,8,9,10-tetrahydroimidazo[2,1-a]-2,6-naphthyridine-2,5,7(3H)-trione] displayed an IC95 below 10 µM.
For `CNC(=O)CN1CCCCn2c(c3c(c(O)c2=O)C(=O)N(Cc2ccc(F)c(Cl)c2)CC3)C1=O` [Example 14, 2-[11-(3-Chloro-4-fluorobenzyl)-9-hydroxy-1,8,10-trioxo-1,3,4,5,6,8,10,11,12,13-deca-hydro-2H-[1,4]diazocino[2,1-a]-2,6-naphthyridin-2-yl]-N-methylacetamide], the IC95 was below 10 µM.
With `CC1CCCN(CCO)C(=O)c2c3c(c(O)c(=O)n21)C(=O)N(Cc1ccc(F)c(Cl)c1)CC3` (stereo not drawn) [Example 30, 11-(3-Chloro-4-fluorobenzyl)-9-hydroxy-2-(2-hydroxyethyl)-6-methyl-3,4,5,6,12,13-hexahydro-2H[1,4]diazocino[2,1-a]-2,6-naphthyridine-1,8,10(11H)-trione] the figure was below 10 µM.
With `CC(=O)OCCN1CCCCn2c(c3c(c(O)c2=O)C(=O)N(Cc2ccc(F)c(Cl)c2)CC3)C1=O` [Example 10, 11-(3-Chloro-4-fluorobenzyl)-9-hydroxy-2-[2-(acetyloxy)ethyl]-3,4,5,6,12,13-hexahydro-2H[1,4]diazocino[2,1-a]-2,6-naphthyridine-1,8,10(11H)-trione] the figure was below 10 µM; with `CN1CC(O)C(C)(C)Cn2c(c3c(c(O)c2=O)C(=O)N(Cc2ccc(F)c(Cl)c2)CC3)C1=O` (racemic) [Example 38, (4R/S)-11-(3-Chloro-4-fluorobenzyl)-4,9-dihydroxy-2,5,5-trimethyl-3,4,5,6,12,13-hexahydro-2H[1,4]diazocino[2,1-a]-2,6-naphthyridine-1,8,10(11H)-trione], below 10 µM.
`CC1C(=O)N(C)c2c3c(c(O)c(=O)n21)C(=O)N(Cc1ccc(F)c(Cl)c1)CC3` (stereo not drawn) [Example 8, 8-(3-Chloro-4-fluorobenzyl)-6-hydroxy-1,3-dimethyl-1,8,9,10-tetrahydroimidazo[2,1-a]-2,6-naphthyridine-2,5,7(3H)-trione] gave an IC95 below 10 µM.
The figure for `CC1(C)C(=O)N(CCCO)c2c3c(c(O)c(=O)n21)C(=O)N(Cc1ccc(F)c(Cl)c1)CC3` [Example 55, 8-(3-Chloro-4-fluorobenzyl)-6-hydroxy-1-(3-hydroxypropyl)-3,3-dimethyl-1,8,9,10-tetrahydroimidazo[2,1-a]-2,6-naphthyridine-2,5,7(3H)-trione] is below 10 µM; for `CN1CC(N2CCOCC2)CCn2c(c3c(c(O)c2=O)C(=O)N(Cc2ccc(F)c(Cl)c2)CC3)C1=O` (stereo not drawn) [Example 27, 11-(3-Chloro-4-fluorobenzyl)-9-hydroxy-2-methyl-4-morpholin-4-yl-3,4,5,6,12,13-hexahydro-2H[1,4]diazocino[2,1-a]-2,6-naphthyridine-1,8,10(11H)-trione] it is below 10 µM.
With `CC(=O)OCCN1C(=O)C(C)(C)n2c1c1c(c(O)c2=O)C(=O)N(Cc2ccc(F)c(Cl)c2)CC1` [Example 57, 8(3-Chloro-4-fluorobenzyl)-6-hydroxy-1-(2-acetyloxyethyl)-3,3-dimethyl-1,8,9,10-tetrahydroimidazo[2,1-a]-2,6-naphthyridine-2,5,7(3H)-trione] the figure was below 10 µM; with `CC1CCCN(CCn2cccn2)C(=O)c2c3c(c(O)c(=O)n21)C(=O)N(Cc1ccc(F)c(Cl)c1)CC3` (stereo not drawn) [Example 35, 11-(3-Chloro-4-fluorobenzyl)-9-hydroxy-2-[2-(1H-pyrazol-1-yl)ethyl]-6-methyl-3,4,5,6,12,13-hexahydro-2H[1,4]diazocino[2,1-a]-2,6-naphthyridine-1,8,10(11H)-trione], below 10 µM; with `O=C(O)CN1CCCCn2c(c3c(c(O)c2=O)C(=O)N(Cc2ccc(F)c(Cl)c2)CC3)C1=O` [Example 12, [11-(3-Chloro-4-fluorobenzyl)-9-hydroxy-1,8,10-trioxo-1,3,4,5,6,8,10,11,12,13-deca-hydro-2H-[1,4]diazocino[2,1-a]-2,6-naphthyridin-2-yl]acetic acid], below 10 µM.
As to `CN1CCn2c(c3c(c(O)c2=O)C(=O)N(Cc2ccc(F)c(Cl)c2)CC3)C1=O` [Example 6, 9-(3-Chloro-4-fluorobenzyl)-7-hydroxy-2-methyl-3,4,10,11-tetrahydro-2H-pyrazino[2,1-a]-2,6-naphthyridine-1,6,8(9H)-trione], the concentration for an effect of 95% (IC95) is below 10 µM.
Regarding `CN1CC(O)C(C)(C)Cn2c(c3c(c(O)c2=O)C(=O)N(Cc2ccc(F)cc2)CC3)C1=O` (racemic) [Example 42, (4R/S)-11-(4-Fluorobenzyl)-4,9-dihydroxy-2,5,5-trimethyl-3,4,5,6,12,13-hexahydro-2H[1,4]diazocino[2,1-a]-2,6-naphthyridine-1,8,10(11H)-trione], the 95% effect concentration (IC95) was below 10 µM.
Consider `O=C1NCCCn2c1c1c(c(O)c2=O)C(=O)N(Cc2ccc(F)c(Cl)c2)CC1` [Example 4, 10-(3-Chloro-4-fluorobenzyl)-8-hydroxy-2,3,4,5,11,12-hexahydro[1,4]diazepino[2,1-a]-2,6-naphthyridine-1,7,9(10H)-trione], for which the IC95 was below 10 µM.
`CC(=O)OCCCN1C(=O)C(C)(C)n2c1c1c(c(O)c2=O)C(=O)N(Cc2ccc(F)c(Cl)c2)CC1` [Example 58, 8-(3-Chloro-4-fluorobenzyl)-6-hydroxy-1-(3-acetyloxypropyl)-3,3-dimethyl-1,8,9,10-tetrahydroimidazo[2,1-a]-2,6-naphthyridine-2,5,7(3H)-trione] returned an IC95 below 10 µM.
The figure for `CC1(C)C(=O)N(CC(N)=O)c2c3c(c(O)c(=O)n21)C(=O)N(Cc1ccc(F)c(Cl)c1)CC3` [Example 53, 2-[8-(3-Chloro-4-fluorobenzyl)-6-hydroxy-3,3-dimethyl-2,5,7-trioxo-2,3,7,8,9,10-hexahydroimidazo[2,1-a]-2,6-naphthyridin-1(5H)-yl]acetamide] is below 10 µM; for `CC1CCn2c(c3c(c(O)c2=O)C(=O)N(Cc2ccc(F)c(Cl)c2)CC3)C(=O)N(C)C1` (stereo not drawn) [Example 46, 11-(3-Chloro-4-fluorobenzyl)-9-hydroxy-2,4-dimethyl-3,4,5,6,12,13-hexahydro-2H[1,4]diazocino[2,1-a]-2,6-naphthyridine-1,8,10(11H)-trione] it is below 10 µM.
For `C[C@H]1C[C@@H](O)CN(C)C(=O)c2c3c(c(O)c(=O)n21)C(=O)N(Cc1ccc(F)c(Cl)c1)CC3` [Example 43, (4R,6S)-11-(3-Ch1oro-4-fluorobenzyl)-4,9-dihydroxy-2,6-dimethyl-3,4,5,6,12,13-hexahydro-2H[1,4]diazocino[2,1-a]-2,6-naphthyridine-1,8,10(11H)-trione], the IC95 is below 10 µM.

One may read the IC95 as the concentration needed for an effect of 95%.
